# Patent US8404660B2, “Method of obtaining of 4-N-furfurylcytosine and/or its derivatives, an anti-aging composition and use of 4-N-furfurylcytosine and/or its derivatives in the manufacture of anti-aging composition” (Instytut Chemii Bioorganicznej Pan, priority 2007, dated 2013)
# Entries after “also recorded” stand apart in the source; their conditions may differ.
# How the values were obtained:
# fibroblast cells = assay: cytotoxic effect of FC on fibroblast cell viability, long-term culture; type: cell-based; conditions: 100 μM FC, vs untreated control
# Procedure: It was observed much less living cells and after 5 weeks they are clearly death (FIG. 2A).
# (§1) HeLa and fibroblast cells are routinely maintained in this laboratory. Fibroblast cells were grown in Optimem medium supplemented with 10% fetal calf serum and antibiotics, HeLa cells were grown in RPMI 1640 supplemented with 10% fetal calf serum and antibiotics (penicillin 100 U/ml and streptomycin 100 ug/ml). All cell lines were incubated in a humidified atmosphere with 5% CO2 in air at 37° C.
# There 1×10^6 cells on 6-well plates were used to study the cytotoxicity area of FC on cell growth in the presence or absence of FC.
# GAPDH [1] = assay: RT/PCR analysis of GAPDH gene expression in fibroblast cells; type: cell-based; conditions: fibroblast cells cultured 5 weeks with 100 μM FC; phosphoimager analysis
# Procedure: To confirm this observation total RNA was isolated and RT/PCR was perform to analyzed total GAPDH gene expression as a result of condition of cells survival (FIG. 2B) The phosphoimager analysis was performed to determined differences in GAPDH expression in fibroblast cells. We observed that it is 72% lower in FC treated cells in comparison to the control (FIG. 2C).
# (§2) Total RNA from cells was isolated using TRIZOL reagent (Invitrogen). Samples for analyses of gene expression were prepared from cultured Hela and fibroblast cells Aliquots (1×10^6 cells) were removed and homogenized in TRIZOL reagent (Invitrogen). Total RNA was then chloroform extracted and precipitated using iso-propanol and ethanol. Reverse transcription was carried out using: 2 μg RNA, random primer and RevertAid™ H Minus M-MuLV reverse transcriptase (Fermentas) according to the manufactures instructions. The resultant cDNA was amplified with primers complementary to the glyceraldehyde-3-phosphate dehydrogenase, GAPDH (G1: GGGTGGAGCCAAACGGGTC, G2: […]) PCR reaction was initiated with denaturation at 94° C. for 2 min, annealing at 55° C. for 1 min, extension at 72° C. for 30 sec, followed by 30 cycles. Equal volumes of amplified products were electrophoresed on 1 agarose gel and stained with ethidium bromide.
# Differences in expression level were determined using Phosphoimager and ImageQant program.
# GAPDH [2] = assay: RT-PCR analysis of GAPDH gene expression in HeLa cells (internal control); type: cell-based; conditions: 100 μM FC, 24 hours, vs untreated control
# Procedure: In other test, we have analyzed influence of FC on the specific gene expression. In this case it was DNMT-1. Effect of FC on DNMT-1 expression was check in HeLa cells after 24 hours (FIG. 3A).
# as §1
# as §2, with “Equal volumes of amplified products were electrophoresed on 1 agarose gel and stained with ethidium bromide.” left out
# [3] = solubility observed during purification; type: physicochemical
# Procedure: The second step was the reaction of furfurylamine (FIG. 1 V) with 4-N-p-toluenesulfonyl-2′-deoxycytidine (FIG. 1 I). The third step was depended on creating of 4-N-furfurylcytosine (FIG. 1 III), by cleavage of N-glycosyl bond by solution of inorganic acid in water (pH of this solution was about 3).
# In this reason, purify on the column was performed in warm water (40-45° C.). The column was referred by aluminium foil, because the decrease temperature of water was carried out to precipitate of the product on the gel. The purification of the product was performed two times, because acid degradation of ribose gave a lot of byproducts, obstructed purification. The main product was eluted in 0.1% warm water solution of methanol. When the temperature of solvent was higher than 45° C., the product could elute earlier. The 4-N-furfurylcytosine was crystallized in water, gave colorless crystals, which form thin needles.
smiles,measurement,setting,value
"O=c1nc(NCc2ccco2)cc[nH]1 [FC, 4-N-furfurylcytosine]",fibroblast cell viability,fibroblast cells; after 3 weeks of culture,decreases in cell viability
same,fibroblast cell viability / cytotoxic effect,fibroblast cells; after 5 weeks of culture,clearly death; also recorded: cytotoxic effect
same,GAPDH expression lower in FC treated cells in comparison to the control,GAPDH [1],72%
same,GAPDH expression level,GAPDH [2],stable and similar
same,solubility in solvents,[3]; all solvents,low solubility
same,solubility in water,"[3]; water, increases with temperature",best solubility
